Measured values from the NIST ThermoML archive (doi:10.1016/j.fluid.2012.08.002).
Numbers after ± are expanded uncertainties.

Conditions: 101.33 kPa, Liquid; for speed of sound: Sing-around technique in a fixed-path interferometer; for mass density: Vibrating tube method

Structure (SMILES)	speed of sound (288.15 K)	mass density (288.15 K)	speed of sound (293.15 K)	mass density (293.15 K)	speed of sound (298.15 K)	mass density (298.15 K)	speed of sound (303.15 K)	mass density (303.15 K)	speed of sound (308.15 K)	mass density (308.15 K)	speed of sound (313.15 K)	mass density (313.15 K)	speed of sound (318.15 K)	mass density (318.15 K)
COCCO [2-methoxyethan-1-ol]	1376.5 ± 0.85 m/s	969.374 ± 0.091 kg/m3	1359 ± 0.85 m/s	964.809 ± 0.092 kg/m3	1341.7 ± 0.84 m/s	960.222 ± 0.094 kg/m3	1324.5 ± 0.84 m/s	955.615 ± 0.095 kg/m3	1307.1 ± 0.83 m/s	950.971 ± 0.097 kg/m3	1290 ± 0.83 m/s	946.306 ± 0.098 kg/m3	1272.8 ± 0.82 m/s	941.609 ± 0.099 kg/m3
CCCCCCn1cc[n+](C)c1.[Br-] [3-hexyl-1-methyl-1H-imidazolium bromide]	1639.8 ± 1.3 m/s	1231.03 ± 0.42 kg/m3	1610.6 ± 1.3 m/s	1227.49 ± 0.42 kg/m3	1587.5 ± 1.3 m/s	1223.82 ± 0.42 kg/m3	1568.1 ± 1.3 m/s	1220.47 ± 0.41 kg/m3	1551.2 ± 1.3 m/s	1216.79 ± 0.41 kg/m3	1533.5 ± 1.2 m/s	1213.28 ± 0.41 kg/m3	1517.8 ± 1.2 m/s	1209.94 ± 0.4 kg/m3
CCCCCCn1cc[n+](C)c1.F[P-](F)(F)(F)(F)F [1-hexyl-3-methylimidazolium hexafluorophosphate]	1449.1 ± 1.2 m/s	1302.74 ± 0.49 kg/m3	1434.1 ± 1.2 m/s	1298.71 ± 0.48 kg/m3	1420.3 ± 1.2 m/s	1294.69 ± 0.48 kg/m3	1407.3 ± 1.2 m/s	1290.66 ± 0.48 kg/m3	1394.9 ± 1.2 m/s	1286.64 ± 0.47 kg/m3	1383 ± 1.2 m/s	1282.63 ± 0.47 kg/m3	1371.5 ± 1.2 m/s	1278.72 ± 0.47 kg/m3
CCCCCCn1cc[n+](C)c1.F[B-](F)(F)F [1-hexyl-3-methylimidazolium tetrafluoroborate]	1548.8 ± 1.2 m/s	1155.32 ± 0.36 kg/m3	1535 ± 1.2 m/s	1151.79 ± 0.35 kg/m3	1521.9 ± 1.2 m/s	1148.26 ± 0.35 kg/m3	1509.2 ± 1.2 m/s	1144.74 ± 0.35 kg/m3	1497 ± 1.2 m/s	1141.23 ± 0.34 kg/m3	1485 ± 1.2 m/s	1137.83 ± 0.34 kg/m3	1473.3 ± 1.2 m/s	1134.43 ± 0.34 kg/m3
